{
  "source": "patent US11260060B2",
  "about": "“Methods and formulations for treatment of and/or protection against acute liver failure and other hepatotoxic conditions” (EGETIS THERAPEUTICS AB, priority 2016, dated 2022)",
  "key": {"[1]": {"experiment": "Forced temperature degradation of a NAC/CaM mixture at 70° C. for 6 hours", "assay_type": "physicochemical", "settings": "NAC/CaM mixture in deionised water", "from_the_text": "This Example describes short and long term stability studies involving mixtures of Calmangafodipir and NAC. Each mixture was formed by adding CaM (in the form of a trisodium salt powder) and NAC to deionised water and mixing on a Vortex shaker. The solution was then transferred to an amber vial. In these studies, typically no additives or stabilizers were used. Standard degradation studies undertaken at short term used the known method of “forced” temperature degradation by storing solutions at 70° C. for 6 hours (to indicate general longer-term storage performance). Samples were withdrawn at specified time points and analyzed by standard spectroscopic methods for N-acetylcysteine (NAC), Calmangafodipir (CaM) and Calmangafodipir-related substances."}, "[2]": {"system": "acetaminophen-induced ALF in male B6C3F1 mice", "experiment": "Animal deaths in acetaminophen-induced ALF mice within 12 hour sampling period", "assay_type": "in vivo", "settings": "within 12 hours after APAP 300 mg/kg i.p., i.v. treatment 1-6 hours post APAP, pooled doses", "from_the_text": "This Example studied the pharmaceutical effects of individual and combined therapies on animal deaths and involved male B6C3F1 mice. Even though serum enzyme activity studies are strongly indicative of liver failure or protection, it is also important to consider other data such as that related to subject animal deaths (%) as a function of the pharmacological treatment. The experiments of this Example studied the pharmaceutical effects of individual and combined therapies on animal deaths in male B6C3F1 mice. The mice were fasted for 8-10 hours and ALF was induced with 300 mg/kg acetaminophen (APAP), i.p., with treatment as specified in the following test groups: • APAP control (n=81, APAP 300 mg/kg i.p.), • NAC (n=53, 30-300 mg/kg i.v., 1-6 hours post APAP), • CaM (n=97, 0.3-10 mg/kg i.v., 1-6 hours post APAP), • CaDPDP (n=10, 3-10 mg/kg i.v., 6 hours post APAP), and • NAC/CaM (n=28, NAC 300 mg/kg, combined with 0.3-10 mg/kg CaM i.v., 2.5-6 hours post APAP)."}, "[3]": {"system": "acetaminophen-induced ALF in male B6C3F1 mice", "experiment": "Acetaminophen-induced ALF mouse model, ALAT at 12 hours", "assay_type": "in vivo", "settings": "NAC 30-300 mg/kg 1 hour post 300 mg/kg i.p. acetaminophen, FIG. 7", "procedure": "In each experiment, an i.p. injection of 300 mg/kg acetaminophen was made to male B6C3F1 mice to cause acetaminophen-induced ALF. In a first experiment, a 300 mg/kg dosage of NAC was administered 1-6 hours after acetaminophen administration. In a second experiment, NAC was administered in a dosage of 30-300 mg/kg NAC 1 hour after acetaminophen administration. In a third experiment, a dosage of 0.3-10 mg/kg calmangafodipir (CaM) was administered 6 hours post acetaminophen administration. In each experiment, ALAT was measured 12 hours following the i.p. injection of 300 mg/kg acetaminophen. FIGS. 6 to 8 show ALF response to administration of NAC and CaM, as detected by monitoring ALAT. […] FIG. 7 indicates the NAC dose-response of NAC administration of 30-300 mg/kg NAC 1 hour post acetaminophen administration. Mean±SEM ALAT levels at 12 hours following i.p. injection of 300 mg/kg acetaminophen in male B6C3F1 mice (n=4-11 per bar) are shown. […] Median±interquartile ALAT levels at 12 hours following i.p. injection of acetaminophen in male B6C3F1 mice (n=4-16 per bar) are shown. Due to some outlier values, and variability from the two experiments, both of which are not unexpected in such model system studies, the data points are plotted individually as well as the median values±inter-quartile range."}},
  "data": [
    {"compound": "calmangafodipir [CaM]", "values": [
      {"measurement": "decrease in CaM concentration during forced degradation", "setting": "[1]", "value": "about 1 % per hour"},
      {"measurement": "Deaths, %", "setting": "[2]", "value": 8, "unit": "%"},
      {"measurement": "Deaths, no.", "setting": "[2]", "value": 8},
      {"measurement": "Deaths, %", "setting": "[2]; listed as calmangafodipir", "value": 8, "unit": "%"}
    ]},
    {"compound": "CC(=O)N[C@@H](CS)C(=O)O", "note": "[NAC, N-acetylcysteine]", "values": [
      {"measurement": "concentration of NAC during forced degradation", "setting": "[1]", "value": "remained constant"},
      {"measurement": "NAC dose-response of ALAT levels", "setting": "[3]", "value": "No clear dose-response could be detected"},
      {"measurement": "Deaths, %", "setting": "[2]", "value": 8, "unit": "%"},
      {"measurement": "Deaths, no.", "setting": "[2]", "value": 4}
    ]}
  ]
}
